US20100099198A1 (priority 2008, published 2010)

Biological target: (WT)7 αHL protein pore (Staphylococcus aureus, UniProt P09616)
Settings: pH 7.5

Chain of (WT)7 αHL protein pore (P09616 27-319 limits assumed): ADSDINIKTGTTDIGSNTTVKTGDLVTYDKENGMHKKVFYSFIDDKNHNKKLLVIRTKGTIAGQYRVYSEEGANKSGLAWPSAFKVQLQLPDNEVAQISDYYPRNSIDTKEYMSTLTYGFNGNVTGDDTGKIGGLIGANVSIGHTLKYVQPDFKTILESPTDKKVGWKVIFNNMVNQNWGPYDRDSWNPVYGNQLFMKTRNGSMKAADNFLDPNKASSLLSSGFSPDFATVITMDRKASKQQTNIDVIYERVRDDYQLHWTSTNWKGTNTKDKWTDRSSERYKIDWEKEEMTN

Y-Y-Y-Y-Y-Y [Y6] was tested, and the dwell time was 1.2 ms.
